# Results reported in ChEMBL document CHEMBL5154882, “Discovery of 4-Hydroxyquinazoline Derivatives as Small Molecular BET/PARP1 Inhibitors That Induce Defective Homologous Recombination and Lead to Synthetic Lethality for Triple-Negative Breast Cancer Therapy” (J Med Chem, 2022).
# Activity calls are given as the source filed them. The calls are words filed in the database; no cut-off is given here.
# Columns and labels:
# [1] = target: Poly [ADP-ribose] polymerase 1 (Homo sapiens, UniProt P09874); assay: Binding affinity to PARP1 in human MDA-MB-468 cells assessed as increase in thermal stability at 5 uM by cellular thermal shift assay; assay type: cell-based
# Sequence of Poly [ADP-ribose] polymerase 1 (P09874 whole entry): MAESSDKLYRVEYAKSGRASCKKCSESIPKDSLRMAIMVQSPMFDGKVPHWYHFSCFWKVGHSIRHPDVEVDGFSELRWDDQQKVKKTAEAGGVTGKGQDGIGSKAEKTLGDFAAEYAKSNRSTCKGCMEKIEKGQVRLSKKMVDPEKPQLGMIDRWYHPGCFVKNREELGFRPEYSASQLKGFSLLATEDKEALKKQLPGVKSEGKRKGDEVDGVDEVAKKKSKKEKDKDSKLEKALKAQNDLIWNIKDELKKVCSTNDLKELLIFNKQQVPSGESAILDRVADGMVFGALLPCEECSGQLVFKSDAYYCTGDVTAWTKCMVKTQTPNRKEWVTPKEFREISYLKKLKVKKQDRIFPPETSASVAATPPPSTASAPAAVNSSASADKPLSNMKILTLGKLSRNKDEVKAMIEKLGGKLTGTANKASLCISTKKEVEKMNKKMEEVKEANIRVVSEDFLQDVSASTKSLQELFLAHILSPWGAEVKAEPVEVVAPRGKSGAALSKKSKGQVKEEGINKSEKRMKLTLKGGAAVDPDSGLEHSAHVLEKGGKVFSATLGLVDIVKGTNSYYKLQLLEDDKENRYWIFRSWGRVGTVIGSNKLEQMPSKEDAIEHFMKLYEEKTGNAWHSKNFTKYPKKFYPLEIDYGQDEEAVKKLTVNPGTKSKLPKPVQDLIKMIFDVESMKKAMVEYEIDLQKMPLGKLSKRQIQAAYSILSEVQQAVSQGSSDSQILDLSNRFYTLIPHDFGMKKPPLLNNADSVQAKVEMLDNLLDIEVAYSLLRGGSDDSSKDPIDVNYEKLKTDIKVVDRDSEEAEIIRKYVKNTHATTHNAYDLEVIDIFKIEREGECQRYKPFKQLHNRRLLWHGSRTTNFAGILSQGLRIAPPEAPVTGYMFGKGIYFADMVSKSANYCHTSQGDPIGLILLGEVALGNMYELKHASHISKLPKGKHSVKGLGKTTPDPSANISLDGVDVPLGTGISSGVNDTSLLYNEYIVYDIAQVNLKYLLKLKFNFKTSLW
# [2] = Half life in Sprague-Dawley rat at 10 mg/kg, po; assay type: ADME, organism-based; conditions: in vivo
# MDA-MB-468 [3] = assay: Cell cycle arrest in human MDA-MB-468 cells assessed as accumulation at G2/M phase at 20 uM incubated for 72 hrs by propidium iodide staining-based flow cytometry analysis (reference value: 16.1%); assay type: functional
# MDA-MB-468 [4] = assay: Cell cycle arrest in human MDA-MB-468 cells assessed as accumulation at G2/M phase at 5 uM incubated for 72 hrs by propidium iodide staining-based flow cytometry analysis (reference value: 16.1%); assay type: functional
# MDA-MB-468 [5] = assay: Induction of apoptosis in human MDA-MB-468 cells assessed as early apoptotic cells at 20 uM incubated for 72 hrs by annexin V/propidium iodide staining-based flow cytometry analysis (reference value: 4.07%); assay type: functional
# MDA-MB-231 [6] = assay: Antitumor activity against human MDA-MB-231 cells xenografted in BALB/c nude mouse assessed as downregulation of Rad51 at 80 mg/kg by Western blot analysis; assay type: functional, organism-based
# [7] = AUC (0 to t) in Sprague-Dawley rat at 10 mg/kg, po; assay type: ADME, organism-based; set-up: dose 10 mg/kg, route po; conditions: in vivo
# [8] = target: T1, Bromodomain-containing protein 4 (Homo sapiens, UniProt O60885); assay: Binding affinity to BRD4 in human MDA-MB-468 cells assessed as increase in thermal stability at 5 uM by cellular thermal shift assay; assay type: cell-based
# [9] = Toxicity in BALB/c nude mouse xenografted with human MDA-MB-468 cells assessed as death at 80 mg/kg, ig administered daily for 16 days measured every 3 days; assay type: organism-based; conditions: in vivo, po, 384 h, time 16 day
# MDA-MB-231 [10] = assay: Antitumor activity against human MDA-MB-231 cells xenografted in BALB/c nude mouse assessed as tumor growth inhibition at 40 to 80 mg/kg incubated for 30 to 40 mins by Ki-67 staining based immunohistochemical analysis; assay type: functional, organism-based; conditions: dose 40-80 mg/kg, time 30-40 min
# MDA-MB-468 [11] = assay: Induction of apoptosis in human MDA-MB-468 cells assessed as up-regulation of Bax protein level at 20 uM incubated for 72 hrs by Western blot analysis; assay type: functional, cell-based
# MDA-MB-468 [12] = assay: Induction of apoptosis in human MDA-MB-468 cells assessed as early apoptotic cells at 5 uM incubated for 72 hrs by annexin V/propidium iodide staining-based flow cytometry analysis (reference value: 4.07%); assay type: functional
# MDA-MB-231 [13] = assay: Induction of DNA damage in human MDA-MB-231 cells assessed as increase in tail DNA measured at 5 to 20 uM after 3 days by comet assay; assay type: functional, cell-based; conditions: dose 5-20 µM, time 3.0 day
# MDA-MB-468 [14] = assay: Inhibition of homologous recombinant repair in human MDA-MB-468 cells assessed as down-regulation of p-RPA32 expression at 5 to 20 uM in by Western blot analysis; assay type: functional, cell-based; conditions: dose 5-20 µM
# MDA-MB-468 [15] = assay: Antitumor activity against human MDA-MB-468 cells xenografted in BALB/c nude mouse model assessed as tumor growth inhibition at 40 to 80 mg/kg, ig administered daily for 16 days measured every 3 days relative to control; assay type: functional; conditions: dose 40-80 mg/kg, time 16 day
# MDA-MB-231 [16] = assay: Antitumor activity against human MDA-MB-231 cells xenografted in BALB/c nude mouse assessed as reduction in CtIp expression at 40 to 80 mg/kg incubated for 30 to 40 mins by immunohistochemical analysis; assay type: functional, organism-based; conditions: dose 40-80 mg/kg, time 30-40 min
# [17] = Cmax in Sprague-Dawley rat at 10 mg/kg, po; assay type: ADME, organism-based; set-up: dose 10 mg/kg, route po; conditions: in vivo
# MDA-MB-468 [18] = assay: Downregulation of PAR expression level in human MDA-MB-468 cells by Western blot analysis; assay type: functional, cell-based; conditions: dose 5-20 µM, DDE = dose-dependent effect
# [19] = Toxicity in BALB/c nude mouse xenografted with human MDA-MB-468 cells assessed as death at 40 to 80 mg/kg, ig administered daily for 16 days measured every 3 days; assay type: organism-based; conditions: in vivo, po, 384 h, dose 40-80 mg/kg, time 16 day
# MDA-MB-468 [20] = assay: Cell cycle arrest in human MDA-MB-468 cells assessed as accumulation at G2/M phase at 10 uM incubated for 72 hrs by propidium iodide staining-based flow cytometry analysis (reference value: 16.1%); assay type: functional
# MDA-MB-231 [21] = assay: Antitumor activity against human MDA-MB-231 cells xenografted in BALB/c nude mouse assessed as reduction in PAR expression at 40 to 80 mg/kg incubated for 30 to 40 mins by immunohistochemical analysis; assay type: functional, organism-based; conditions: dose 40-80 mg/kg, time 30-40 min
# MDA-MB-468 [22] = assay: Induction of apoptosis in human MDA-MB-468 cells assessed as late apoptotic cells at 20 uM incubated for 72 hrs by annexin V/propidium iodide staining-based flow cytometry analysis (reference value: 1.34%); assay type: functional
# MDA-MB-231 [23] = assay: Antitumor activity against human MDA-MB-231 cells xenografted in BALB/c nude mouse assessed as downregulation of BRD4 downstream protein at 40 mg/kg by Western blot analysis; assay type: functional, organism-based
# MDA-MB-231 [24] = assay: Antitumor activity against human MDA-MB-231 cells xenografted in BALB/c nude mouse assessed as downregulation of […] downstream protein at 40 mg/kg by Western blot analysis; assay type: functional, organism-based
# [25] = AUC (0 to infinity) in Sprague-Dawley rat at 10 mg/kg, po; assay type: ADME, organism-based; set-up: time infinity, dose 10 mg/kg, route po; conditions: in vivo
# MDA-MB-468 [26] = assay: Induction of apoptosis in human MDA-MB-468 cells assessed as late apoptotic cells at 5 uM incubated for 72 hrs by annexin V/propidium iodide staining-based flow cytometry analysis (reference value: 1.34%); assay type: functional
# [27] = Toxicity in BALB/c nude mouse xenografted with human MDA-MB-468 cells assessed as morphological changes in kidney at 40 to 80 mg/kg, ig administered daily for 16 days measured every 3 days by hematoxyin-eosin staining based analysis; assay type: organism-based; conditions: in vivo, po, 384 h, dose 40-80 mg/kg, time 16 day
# [28] = Half life in Sprague-Dawley rat at 1 mg/kg, iv; assay type: ADME, organism-based; conditions: in vivo
# [29] = target: T1, Bromodomain-containing protein 4; assay: Inhibition of BRD4 BD2 (unknown origin)
# MDA-MB-468 [30] = assay: Cell cycle arrest in human MDA-MB-468 cells assessed as accumulation at G0/G1 phase at 5 uM incubated for 72 hrs by propidium iodide staining-based flow cytometry analysis (reference value: 61.4%); assay type: functional
# MDA-MB-231 [31] = assay: Antitumor activity against human MDA-MB-231 cells xenografted in BALB/c nude mouse assessed as downregulation of c-Myc at 80 mg/kg by Western blot analysis; assay type: functional, organism-based
# [32] = Toxicity in BALB/c nude mouse xenografted with human MDA-MB-468 cells assessed as morphological changes in spleen at 40 to 80 mg/kg, ig administered daily for 16 days measured every 3 days by hematoxyin-eosin staining based analysis; assay type: organism-based; conditions: in vivo, po, 384 h, dose 40-80 mg/kg, time 16 day
# MDA-MB-468 [33] = assay: Downregulation of c-Myc expression level in human MDA-MB-468 cells by Western blot analysis; assay type: functional, cell-based; conditions: dose 5-20 µM, DDE = dose-dependent effect
# MDA-MB-231 [34] = assay: Antitumor activity against human MDA-MB-231 cells xenografted in BALB/c nude mouse assessed as reduction in Rad51 expression at 40 to 80 mg/kg incubated for 30 to 40 mins by immunohistochemical analysis; assay type: functional, organism-based; conditions: dose 40-80 mg/kg, time 30-40 min
# MDA-MB-468 [35] = assay: Inhibition of homologous recombinant repair in human MDA-MB-468 cells assessed as down-regulation of CtlP expression at 5 to 20 uM in by Western blot analysis; assay type: functional, cell-based; conditions: dose 5-20 µM
compound,measurement,setting,value
COc1cc(OC)c2c(=O)[nH]c(-c3cccc(Cc4n[nH]c(=O)c5ccccc45)c3)nc2c1,Activity,[1],Active
same,half-life,[2],3.33 h
same,Activity,MDA-MB-468 [3],14%
same,Activity,MDA-MB-468 [4],16.6%
same,Activity,MDA-MB-468 [5],28.26%
same,Activity,MDA-MB-231 [6],Active
same,AUC(0-t),[7],1.49 µg·h/mL
same,Activity,[8],Active
same,Activity,[9],Non-Toxic
same,Activity,MDA-MB-231 [10],Active
same,Activity,MDA-MB-468 [11],Active
same,Activity,MDA-MB-468 [12],21.47%
same,Activity,MDA-MB-231 [13],Active
same,inhibition,MDA-MB-468 [14],Active
same,TGI,MDA-MB-468 [15],68.7%
same,Activity,MDA-MB-231 [16],Active
same,Cmax,[17],0.242 µg/mL
same,Activity,MDA-MB-468 [18],Dde
same,Activity,[19],Non-Toxic
same,Activity,MDA-MB-468 [20],14.5%
same,Activity,MDA-MB-231 [21],Active
same,Activity,MDA-MB-468 [22],6.18%
same,Activity,MDA-MB-231 [23],Active
same,Activity,MDA-MB-231 [24],Active
same,AUC(0-inf),[25],1.53 µg·h/mL
same,Activity,MDA-MB-468 [26],6.08%
same,Activity,[27],Non-Toxic
same,t1/2,[28],3.02 h
same,IC50,[29],0.175 µM
same,Activity,MDA-MB-468 [30],62.3%
same,Activity,MDA-MB-231 [31],Active
same,Activity,[32],Non-Toxic
same,Activity,MDA-MB-468 [33],Dde
same,Activity,MDA-MB-231 [34],Active
same,inhibition,MDA-MB-468 [35],Active
